Patent US10766869B2, “Triazoles for the treatment of demyelinating dieases” (Vertex Pharmaceuticals Incorporated, priority 2015, dated 2020)
Where two headings read alike, the source gives them in different places.

Test system: primary rat mixed cortical cells
Experiment: In vitro myelination assay (MBP positive myelin strands, fold myelin pixels above background)
Type: cell-based
Settings: Rattus norvegicus; for fold induction at 1 µM: 1.0 μM compound; for fold induction at 10 µM: 10.0 μM compound
From the text: In Vitro Myelination Assay
Compounds were screened for their ability to induce myelination using a primary rat mixed cortical cell culture assay, which contains neurons, oligodendrocyte precursor cells, oligodendrocytes, astrocytes and microglia. The assay quantifies myelination by measuring myelin basic protein (MBP) immunofluorescent positive myelin strands from images taken using a Cellomics Array Scan (model Arrayscan VTI HCS Reader) or a Molecular Devices Image Xpress (model IXM XL) high content imager. The myelin strands were quantitated using a custom created myelin detection software program. Test compounds were dissolved in DMSO to make a 10 mM initial stock solution. Dilutions were made in myelination medium to obtain the final solutions for the assay and were tested in primary rat mixed cortical cells at selected doses.
Primary rat mixed cortical cells were prepared from harvested cerebral cortices from postnatal day 1 (P1) rats (P1 Rat CD® IGS pups) were purchased from Charles River) in Complete Dissociation Medium, wherein the meninges were removed and the cortical tissue chopped with a razor blade into ˜1 mm^3 pieces. Tissue from 1-3 pups was collected and placed into 15 ml conical tubes in a total volume of 5 ml of Complete Dissociation Medium. Activated papain (3 ml) was added to each 15 ml conical tube and tissue was incubated at 37° C. for 30 minutes. After the 30 minute incubation, DNase (Sigma D4527; 75 μl of a 1 mg/ml stock) was added to each tube, followed by mechanical trituration using a 2 ml serological pipette and autopipettor to gently dissociate the tissue. Following trituration, larger tissue pieces were allowed to settle by gravity, and the supernatant containing dissociated cells was transferred to a 50 ml conical tube with 4 ml of trypsin inhibitor. Cells were pelleted by centrifugation, resuspended in myelination medium and filtered through a 40 μm filter. Cells were then seeded in 96-well plates (BD Biosciences, Black, PDL-coated, Cat. No. 356640) at 87,500-95,000 cells/well in a final volume of 200 μl of Myelination Medium in the presence or absence of compound and cultured for 14 days in a humidified 37° C. incubator with 5% CO2. Half the medium was removed and replaced with fresh medium containing 1× compound on days 6 and 10. Using a Biotek automatic plate washer (model Biomek® FXP Laboratory Automation Workstation), cells were fixed with 4% paraformaldehyde on day 14, washed with PBS and blocked in 5% normal goat serum (Vector Laboratories, S-1000) in 0.1% PBS-TritonX-100 (PBST) for 1 hour. Cells were stained with 1:500 anti-MBP (Covance, cat # SMI99) primary antibody in 1% normal goat serum in 0.1% PBST for 2 hours at room temperature followed by 2 washes with PBST. A final incubation in secondary antibody (1:1000, Invitrogen, Alexa-488 anti-mouse IgG2b) and 1:10,000 Hoechst dye in 1% normal goat serum in 0.1% PBST was performed for 2 hours at room temperature. Plates were washed with PBS and then scanned on a Cellomics Array Scan using a 10× objective (25 images per well) or the Image Xpress using a 10× objective (9 image per well). Images were analyzed using Vertex myelin detection software (described below) to quantify total MBP myelin pixels per well. Fold myelin pixels above background at two concentrations (1.0 μM and 10.0 μM) relative to baseline of no added compound are reported below in Table 4. Standard deviation for each compound concentration was calculated using all replicates and using a standard deviation formula commonly used in the art.
One of skill in the art would recognize that for this type of primary neuronal mixed cell assay variability between different assay runs is to be expected even though the protocol is the same for each assay run. For instance, variability may be due to small differences in cell viability, cell density, age of the animals, etc.
Vertex Myelin Detection Software: […]

[1] = relative to baseline of no added compound, read-out: Fold myelin pixels above background, 1.0 μM
[2] = relative to baseline of no added compound, read-out: Fold myelin pixels above background, 10.0 μM
[3] = relative to baseline of no added compound, read-out: Fold myelin pixels above background
[4] = read-out: Fold myelin pixels above background relative to baseline of no added compound

Compound	fold induction at 1 µM [3]	fold induction at 10 µM [3]	further results
Cc1cc(Nc2ncn(-c3cc(F)cc(F)c3)n2)cc([C@H]2CCN(C3COC3)C[C@@H]2O)c1 (racemic) [Compound 282, (3R,4R)-4-[3-[[1-(3,5-difluorophenyl)-1,2,4-triazol-3-yl]amino]-5-methyl-phenyl]-1-(oxetan-3-yl)piperidin-3-ol; (3S,4S)-4-[3-[[1-(3,5-difluorophenyl)-1,2,4-triazol-3-yl]amino]-5-methyl-phenyl]-1-(oxetan-3-yl)piperidin-3-ol]	–	–	fold induction at 1 µM [1]: 10 to 100; fold induction at 10 µM [2]: 10 to 100
Cc1cc(Nc2ncn(-c3cc(F)cc(F)c3)n2)cc([C@@H]2CCN(C3COC3)C2)c1 (single isomer, unassigned) [Compound 92]	–	–	fold induction at 1 µM [1]: 1000 to 10000; fold induction at 10 µM [2]: 100 to 1000
Cc1cc(Nc2ncn(-c3cc(F)cc(F)c3)n2)cc([C@@]2(O)CCN(C3COC3)C2)c1 (single isomer, unassigned) [Compound 101]	–	–	fold induction at 1 µM [1]: 1000 to 10000; fold induction at 10 µM [2]: 1 to 10
Cc1cc(Nc2ncn(-c3cc(F)cc(F)c3)n2)cc([C@H]2CCN(C3COC3)C2)c1 (single isomer, unassigned) [Compound 473]	100 to 1000	1 to 10	–
Cc1cc(Nc2ncn(-c3cnccn3)n2)cc([C@@]2(C)CNC(=O)O2)c1 (single isomer, unassigned) [Compound 603]	10 to 100	10 to 100	–
Cc1cc(Nc2ncn(-c3cc(F)cc(F)c3)n2)cc([C@@]2(C)CN(C)C(=O)O2)c1 (single isomer, unassigned) [Compound 611]	10 to 100	1 to 10	–
Cc1cc(Nc2ncn(-c3cc(F)cc(F)c3)n2)cc([C@H]2CN(C3COC3)CCO2)c1 (single isomer, unassigned) [Compound 623]	10 to 100	1 to 10	–
Cc1cc(Nc2ncn(-c3ccc(F)c(F)c3)n2)cc(O[C@H]2CCCN(C3COC3)C2)c1 (single isomer, unassigned) [Compound 632]	10 to 100	≤ 1	–
Cc1cc(Nc2ncn(-c3cc(F)cc(F)c3)n2)cc(N[C@H]2C[C@H](N3CCOCC3)C2)c1 (single isomer, unassigned) [Compound 649, N1-[1-(3,5-difluorophenyl)-1,2,4-triazol-3-yl]-5-methyl-N3-(3-morpholinocyclobutyl)benzene-1,3-diamine]	10 to 100	≤ 1	–
Cc1cc(Nc2ncn(-c3cc(F)cc(F)c3)n2)cc([C@]2(C)CNC(=O)O2)c1 (single isomer, unassigned) [Compound 655]	10 to 100	≤ 1	–
Cc1cc(Nc2ncn(-c3ccc(F)c(F)c3)n2)cc(O[C@@H]2CCCN(C3COC3)C2)c1 (single isomer, unassigned) [Compound 665]	10 to 100	1 to 10	–
Cc1cc(Nc2ncn(-c3cc(F)cc(F)c3)n2)cc([C@@]2(C)CN(C3COC3)CCO2)c1 (single isomer, unassigned) [Compound 667]	10 to 100	1 to 10	–
Fc1cc(F)cc(-n2cnc(Nc3cc(C(F)(F)F)cc(N4CCN([C@@H]5CCOC5)CC4)n3)n2)c1 (single isomer, unassigned) [Compound 672]	1 to 10	1 to 10	–
Cc1cc(Nc2ncn(-c3cc(F)cc(F)c3)n2)nc(N2CCN([C@H]3CCOC3)CC2)c1 (single isomer, unassigned) [Compound 673]	10 to 100	100 to 1000	–
Cc1cc(Nc2ncn(-c3cc(F)cc(F)c3)n2)cc([C@@]2(C)CNC(=O)O2)c1 (single isomer, unassigned) [Compound 679]	10 to 100	1 to 10	–
Cc1cc(Nc2ncn(-c3cnccn3)n2)cc([C@]2(C)CNC(=O)O2)c1 (single isomer, unassigned) [Compound 682]	10 to 100	10 to 100	–
Cc1cc(Nc2ncn(-c3cc(F)cc(F)c3)n2)cc(N2CC(N3CCO[C@H](C)C3)C2)c1 (single isomer, unassigned) [Compound 696]	10 to 100	1 to 10	–
Cc1cc(Nc2ncn(-c3cc(F)cc(F)c3)n2)cc(O[C@H]2CCCN(C3COC3)C2)c1 (single isomer, unassigned) [Compound 700]	10 to 100	≤ 1	–
Cc1cc(Nc2ncn(-c3cc(F)cc(F)c3)n2)nc(N2CCN([C@H]3CCOC3)CC2)c1 (single isomer, unassigned) [Compound 740]	10 to 100	10 to 100	–
Cc1cc(Nc2ncn(-c3cc(F)cc(F)c3)n2)cc(O[C@@H]2CCCN(C3COC3)C2)c1 (single isomer, unassigned) [Compound 748]	10 to 100	≤ 1	–
Cc1cc(Nc2ncn(-c3cc(F)cc(F)c3)n2)cc([C@]2(C)CN(C3COC3)CCO2)c1 (single isomer, unassigned) [Compound 750]	1 to 10	10 to 100	–
Cc1cc(Nc2ncn(-c3cc(F)cc(F)c3)n2)cc([C@@H]2CN(C3COC3)CCO2)c1 (single isomer, unassigned) [Compound 751]	10 to 100	≤ 1	–
Fc1cc(F)cc(-n2cnc(Nc3cc(C(F)(F)F)cc(N4CCN([C@H]5CCOC5)CC4)n3)n2)c1 (single isomer, unassigned) [Compound 787]	–	–	fold induction at 1 µM [4]: 1 to 10; fold induction at 10 µM [4]: 10 to 100
Cc1cc(Nc2ncn(-c3ccc(F)c(F)c3)n2)cc(N[C@H]2C[C@H](N3CCOCC3)C2)c1 (single isomer, unassigned) [Compound 792, N1-[1-(3,4-difluorophenyl)-1,2,4-triazol-3-yl]-5-methyl-N3-(3-morpholinocyclobutyl)benzene-1,3-diamine]	–	–	fold induction at 1 µM [4]: 10 to 100; fold induction at 10 µM [4]: ≤ 1
Cc1cc(Nc2ncn(-c3cc(F)cc(F)c3)n2)cc([C@]2(C)CN(C)C(=O)O2)c1 (single isomer, unassigned) [Compound 796]	–	–	fold induction at 1 µM [4]: 10 to 100; fold induction at 10 µM [4]: ≤ 1
Cc1cc(Nc2ncn(-c3cc(F)cc(F)c3)n2)cc(N2CC(N3CCOC[C@@H]3C)C2)c1 (single isomer, unassigned) [Compound 800]	–	–	fold induction at 1 µM [4]: 10 to 100; fold induction at 10 µM [4]: 10 to 100
Cc1cc(Nc2ncn(-c3ccc(F)c(F)c3)n2)cc(N[C@H]2C[C@@H](N3CCOCC3)C2)c1 (single isomer, unassigned) [Compound 826, N1-[1-(3,4-difluorophenyl)-1,2,4-triazol-3-yl]-5-methyl-N3-(3-morpholinocyclobutyl)benzene-1,3-diamine]	–	–	fold induction at 1 µM [4]: 10 to 100; fold induction at 10 µM [4]: ≤ 1
Cc1cc(Nc2ncn(-c3cc(F)cc(F)c3)n2)cc(N[C@H]2C[C@@H](N3CCOCC3)C2)c1 (single isomer, unassigned) [Compound 861, N1-[1-(3,5-difluorophenyl)-1,2,4-triazol-3-yl]-5-methyl-N3-(3-morpholinocyclobutyl)benzene-1,3-diamine]	–	–	fold induction at 1 µM [4]: 10 to 100; fold induction at 10 µM [4]: ≤ 1
